Test results as given in patent US20220362120A1, “STABILIZATION OF RESORCINOL COMPOUNDS IN COSMETIC COMPOSITIONS” (Conopco, Inc., d/b/a UNILEVER, priority 2019, published 2022).

How the values were obtained:
[1] = Color evaluation of 4-alkylresorcinol solutions (visual and L*a*b*, Labscan XE) after 2 weeks at R.T.; assay type: physicochemical; settings: for Appearance (visual appearance of solution) / L* / b* / a*: after 2 weeks at R.T. (~20-22° C.), DI water:butylene glycol (4:1); for L*: black (L*=0) to white (L*=100); for b*: blue (b*<0) to yellow (b*>0); for a*: green (a*<0) to red (a*>0)
Experimental: Samples for color evaluation were prepared by dissolving 4-hexylresorcinol (200 mg) or 4-ethylresorcinol (200 mg) in DI water:butylene glycol (4:1; 20 ml) to generate a clear colorless homogeneous solution. A portion of each solution (5 ml) was added to a 20 ml scintilation vial containing either niacinamide (B3) (50 mg), AceMet (acetyl methionine) (50 mg) or B3 (50 mg)+AceMet (50 mg) and monitored @ R.T. (˜20-22° C.). After 2 weeks, the color of each solution was assessed visually and L*a*b* measurements determined experimentally using a Labscan XE instrument (Hunter Associates Labs Inc., Reston, Va.) and processed with Universal Software (version 4.10). The L* parameter measures darkness and lightness and ranges from black (L*=0) to white (L*=100). The a* parameter measures color content and intensity ranging from green (a*<0) to neutral grey (a*=0) to red (a*>0). The b* parameter also measures color content and intensity ranging from blue (b*<0) to neutral grey (b*=0) to yellow (b*>0).

[2] = Quantitation of 4-alkyl resorcinols by HPLC (peak area @ 281 nm vs freshly prepared control); assay type: physicochemical; settings: for 4-Alkylresorcinol (% of control): after 2 weeks at R.T. (~20-22° C.), HPLC, mean of duplicates, DI water:butylene glycol (4:1)
Experimental: The amount of 4-alkylresorcinol present in each of the samples used for the color measurements was quantitated after 2 weeks @ R.T. (˜20-22° C.) by high performance liquid chromatography (HPLC). An sample aliquot (100 uL) from each of the color measurement solutions was diluted with DI water:acetonitrile (1:1, 900 uL) to generate test samples (1 ml). An aliquot (10 uL) from each test sample was injected into a Waters 2695 Separations Module, chromatographed and separated on a Restek Pinnacle DB C18 (5 um, 4.6×150 mm) column operated at 30° C. and the 4-alkylresorcinols monitored using a Waters 2996 Photodiode Array Detector set @ 281 nm. The mobile phase consisted of water (A) and acetonitrile (B) and optimum separation was achieved using a gradient from 95:5 (A:B) to 5:95 (A:B) in 20 min, followed by isocratic elution at 5:95 (A:B) for 3 min at a flow rate of 1 ml/min. The chromatographic data was processed using Empower 2 software (Waters Corporation, Milford, Mass.). Standard control samples of 4-alkylresorcinols at 1×, 5× higher and 5× lower concentrations were prepared fresh and immediately analysed; standard curves were generated within the test sample range and linearity was confirmed.
All samples were analyzed in duplicate and the mean value reported. The amount of 4-alkylresorcinol present for each test sample after 2 weeks was determined by measuring the chromatographic peak area under the curve @ 281 nm for the 4-alkylresorcinol and expressed as the percent ratio over the corresponding chromatographic peak area under the curve @ 281 nm for the freshly prepared control sample.

| Appearance (visual appearance of solution) [1] | L* [1] | b* [1] | a* [1] | color of solution ([1]; freshly prepared solution) | decrease of the level of HR ([2]; HR solution after 2 weeks) | decomposition of HR ([2]; HR solution with addition of B3, after 2 weeks) | 4-Alkylresorcinol (% of control) [2] | decomposition upon HPLC analysis ([2]; freshly prepared solution) | SMILES |
| --- | --- | --- | --- | --- | --- | --- | --- | --- | --- |
| reddish-pink | 84.77 | 13.4 | 11.4 | colorless | 40% | 55% | 60 % of control | no decomposition | CCCCCCc1ccc(O)cc1O [1% HR, 4-hexylresorcinol] |
| light orange | 82.74 | 39.57 | 6.38 | – | – | – | 96 % of control | – | CCc1ccc(O)cc1O [1% ER, 4-ethylresorcinol] |
